The values that follow come from patent US20030044399A1, “Method of treatment” (SmithKline Beecham Corporation, priority 1998, published 2003).

The target of one experiment is Schisto B 1 (Schistosoma mansoni, UniProt P25792). As to the kind of experiment: Cysteine protease inhibition, progress curve method, schistosoma B 1. It is filed as biochemical. As to conditions: 10 uM Cbz-Phe-Arg-AMC, 100 mM Na acetate pH 5.5, 5 mM cysteine; read-out: Schisto B 1 Ki. As for the experimental part:
(§1) Standard assay conditions for the determination of kinetic constants used 10 uM fluorogenic peptide substrate, Cbz-Phe-Arg-AMC for the cysteine proteases from Leishmania spp and Schistosoma Mansoni, Cbz-Leu-Arg-AMC for the cysteine proteases from Plasmodium falciparum and Trypanosoma brucei rhodesiensi, and Ac-Lys-Glu-Lys-Leu-Arg-AMC (4 uM final substrate concentration) for the cysteine protease from Trypoanosoma cruzi, and were determined in 100 mM Na acetate at pH 5.5 containing 5 mM cysteine. Stock substrate solutions were prepared at concentrations of […] in DMSO with 10 uM (4 uM for Ac-Lys-Glu-Lys-Leu-Arg-AMC) final substrate concentration in the assays. The final DMSO concentration was 2% and the final volume was 100 uL. All assays were conducted at ambient temperature. Product progress curves were generated over 20 to 30 minutes following formation of AMC product.
(§2) Potential inhibitors were evaluated using the progress curve method. Assays were carried out in the presence of variable concentrations of test compound. Reactions were initiated by addition of enzyme to buffered solutions of inhibitor and substrate. Data analysis was conducted according to one of two procedures depending on the appearance of the progress curves in the presence of inhibitors. For those compounds whose progress curves were linear, apparent inhibition constants (Ki,app) were calculated according to equation 1 (Brandt et al., Biochemitsry, 1989, 28, 140):
(§3) v=VmA/[Ka(1+I/Ki,app)+A] (1)
(§4) Where v is the velocity of the reaction with maximal velocity Vm, A is the concentration of substrate with Michaelis constant of Ka, and I is the concentration of inhibitor.
(§5) [AMC]=vsst+(v0−vss)[1−exp (−kobst)]/kobs (2)
(§6) Where [AMC] is the concentration of product formed over time t, v0 is the initial reaction velocity and vss is the final steady state rate. Values for kobs were then analyzed as a linear function of inhibitor concentration to generate an apparent second order rate constant (kobs/inhibitor concentration or kobs/[I]) describing the time-dependent inhibition. A complete discussion of this kinetic treatment has been fully described (Morrison et al., Adv. Enzymol. Relat. Areas Mol. Biol., 1988, 61, 201).
(§7) Exemplary inhibition data for the compounds used in the present method collected in accordance with the above-described procedure are listed in Table I.

The next experiment concerns the target Cruzain (Trypanosoma cruzi, UniProt P25779). In words: Cysteine protease inhibition, progress curve method, cruzain. It is filed as biochemical. As to conditions: 4 uM Ac-Lys-Glu-Lys-Leu-Arg-AMC, 100 mM Na acetate pH 5.5, 5 mM cysteine; read-out: Cruzain Ki. In short, it runs like this: (§8)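 Buffer was 100 mM sodium acetate pH 5.5 with 5 mM cysteine and 2% DMSO, at ambient temperature; reactions started with enzyme, and AMC formation was followed for 20–30 min. Substrates: Leishmania and Schistosoma, 10 uM Cbz-Phe-Arg-AMC; falcipain, 10 uM Cbz-Leu-Arg-AMC; cruzain, 4 uM Ac-Lys-Glu-Lys-Leu-Arg-AMC. Linear curves gave Ki,app; curved ones gave kobs/[I].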

Another experiment addresses Schisto B 2 (Schistosoma mansoni, UniProt Q95PM1). As to the kind of experiment: Cysteine protease inhibition, progress curve method, schistosoma B 2. The experiment is classed as biochemical. As to conditions: 10 uM Cbz-Phe-Arg-AMC, 100 mM Na acetate pH 5.5, 5 mM cysteine. As for the experimental part: as §1, §2, §3, §4, §5, §6, §7
The target in the next experiment is Rhodazain (Trypanosoma brucei rhodesiense, UniProt Q95PM0). In words: Cysteine protease inhibition, progress curve method, rhodazain. The experiment is classed as biochemical, Trypanosoma brucei rhodesiensi. As to conditions: Rhodazain Ki (nM), 10 uM Cbz-Leu-Arg-AMC, 100 mM Na acetate pH 5.5, 5 mM cysteine.
Sequence of Rhodazain (Q95PM0 entry or part of it): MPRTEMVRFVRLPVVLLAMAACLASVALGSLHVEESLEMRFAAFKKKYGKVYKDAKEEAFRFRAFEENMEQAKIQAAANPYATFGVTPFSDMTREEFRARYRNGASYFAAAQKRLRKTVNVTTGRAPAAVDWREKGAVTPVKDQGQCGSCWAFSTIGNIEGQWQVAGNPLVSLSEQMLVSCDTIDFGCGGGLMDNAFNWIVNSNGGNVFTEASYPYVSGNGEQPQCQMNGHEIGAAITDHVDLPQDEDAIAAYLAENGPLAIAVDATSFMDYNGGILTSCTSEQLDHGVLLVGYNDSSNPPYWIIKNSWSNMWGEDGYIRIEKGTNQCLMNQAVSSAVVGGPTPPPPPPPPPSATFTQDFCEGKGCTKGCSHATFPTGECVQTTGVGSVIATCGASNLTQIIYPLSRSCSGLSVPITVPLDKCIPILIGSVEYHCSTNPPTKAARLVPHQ
In another experiment the target is Falcipain 2 (Plasmodium falciparum, UniProt Q8I6U4). In words: Cysteine protease inhibition, progress curve method, falcipain. It is filed as biochemical. The conditions noted are these: 10 uM Cbz-Leu-Arg-AMC, 100 mM Na acetate pH 5.5, 5 mM cysteine. In short, it runs like this: as §8
Sequence of Falcipain 2 (Q8I6U4 244-484): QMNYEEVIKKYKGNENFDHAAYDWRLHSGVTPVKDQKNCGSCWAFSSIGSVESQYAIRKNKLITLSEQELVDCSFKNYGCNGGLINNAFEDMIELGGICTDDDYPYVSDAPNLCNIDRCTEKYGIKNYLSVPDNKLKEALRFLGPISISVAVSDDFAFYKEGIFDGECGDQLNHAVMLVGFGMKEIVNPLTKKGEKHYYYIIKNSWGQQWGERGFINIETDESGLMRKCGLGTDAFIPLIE

Sequence of Schisto B 1 (P25792 89-340): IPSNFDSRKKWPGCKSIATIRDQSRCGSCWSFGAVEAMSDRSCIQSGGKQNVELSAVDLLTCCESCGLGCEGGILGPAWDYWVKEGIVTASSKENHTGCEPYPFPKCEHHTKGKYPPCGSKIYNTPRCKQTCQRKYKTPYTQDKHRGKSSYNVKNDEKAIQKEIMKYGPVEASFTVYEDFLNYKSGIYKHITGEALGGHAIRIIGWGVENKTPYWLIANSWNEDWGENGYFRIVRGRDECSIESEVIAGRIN
Sequence of Schisto B 2 (Q95PM1 entry or part of it): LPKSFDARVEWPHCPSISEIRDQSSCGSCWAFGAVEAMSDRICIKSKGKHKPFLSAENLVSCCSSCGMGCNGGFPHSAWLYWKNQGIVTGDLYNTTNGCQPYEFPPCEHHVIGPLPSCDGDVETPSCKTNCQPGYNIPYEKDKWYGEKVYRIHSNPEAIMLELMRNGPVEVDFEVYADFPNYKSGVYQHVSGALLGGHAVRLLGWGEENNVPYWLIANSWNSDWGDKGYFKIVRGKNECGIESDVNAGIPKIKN
Sequence of Cruzain (P25779 123-337): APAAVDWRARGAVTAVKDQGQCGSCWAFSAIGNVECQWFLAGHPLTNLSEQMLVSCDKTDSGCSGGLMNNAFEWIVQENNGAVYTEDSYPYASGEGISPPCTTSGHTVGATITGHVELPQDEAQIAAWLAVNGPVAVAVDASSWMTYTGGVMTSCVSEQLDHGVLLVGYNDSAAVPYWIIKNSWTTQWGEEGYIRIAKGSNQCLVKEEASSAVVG

For `COc1cccc(S(=O)(=O)N2CCC[C@H](NC(=O)[C@H](CC(C)C)NC(=O)c3cc4cc(OC)ccc4o3)C(=O)C2)c1` [Example 137, 5-Methoxy-benzofuran-2-carboxylic acid-{(S)-1-[1-(3-methoxy-benzenesulfonyl)-3-oxo-azepan-4-ylcarbamoyl]-3-methyl-butyl}-amide], the inhibition constant Ki (in general, a measure of affinity in units of concentration, obtained from inhibition or displacement) on Schisto B 1 was 67 nM; on Cruzain it was 19 nM; on Schisto B 2, 380 nM.
Regarding `COc1cccc(S(=O)(=O)N2CCC[C@H](NC(=O)[C@H](CC(C)C)NC(=O)c3cc4ccccc4s3)C(=O)C2)c1` [Example 140, Benzo[b]thiophene-2-carboxylic acid-{(S)-1-[1-(3-methoxy-benzenesulfonyl)-3-oxo-azepan-4-ylcarbamoyl]-3-methyl-butyl}-amide], the figures for the Ki on Schisto B 1 and at Schisto B 2 were 68 nM and 280 nM, respectively.
The matching figures for `CC(C)C[C@H](NC(=O)c1ccc2ccccc2n1)C(=O)N[C@H]1CCCN(S(=O)(=O)c2ccc(F)cc2)CC1=O` [Example 83]: 61 nM and 230 nM.
For `O=C(NC(Cc1ccccc1)C(=O)N[C@@H]1CCCN(S(=O)(=O)c2ccccn2)CC1=O)c1cccc2ccccc12` (single isomer, unassigned) [Example 190], the Ki on Schisto B 1 was 38 nM; at Cruzain it was 8.4 nM; at Schisto B 2, 68 nM; on Rhodazain it was 2.5 nM.
`CC(C)C[C@@H](NC(=O)c1ccc2c(c1)OCO2)C(=O)N[C@@H]1CCCN(S(=O)(=O)c2ccc(F)cc2)CC1=O` (stereo in doubt) [Example 67, Benzo[1,3]dioxole-5-carboxylic acid {(S)-1-[1-(4-fluoro-benzenesulfonyl)-3-oxo-azepan-4-ylcarbamoyl]-3methyl-butyl}-amide]: the Ki turned out to be 45 nM at Schisto B 1, 11 nM at Cruzain and 330 nM at Schisto B 2.
The matching figures for `CC(C)C[C@H](NC(=O)c1cnc2ccccc2n1)C(=O)N[C@H]1CCCN(S(=O)(=O)c2ccc(F)cc2)CC1=O` [Example 86]: 44 nM, 23 nM and 260 nM.
`CC(C)CC(NC(=O)c1cc2ccccc2s1)C(=O)NC1CCCN(S(=O)(=O)c2ccccn2)CC1=O` (stereo in doubt) [Example 87, Benzo[b]thiophene-2-carboxylic acid {(S)-3-methyl-1-[3-oxo-1-(pyridine-2-sulfonyl)-azepan-4-ylcarbamoyl]-butyl}amide]: the Ki at Schisto B 1 amounted to 44 nM; on Cruzain, 3 nM; on Falcipain 2 it was 42 nM; at Schisto B 2 it was 260 nM; on Rhodazain, 1.9 nM.
On to `COc1cccc(S(=O)(=O)N2CCC[C@H](NC(=O)[C@H](CC(C)C)NC(=O)c3cc4ccccc4n3C)C(=O)C2)c1` [Example 141, 1-Methyl-1H-indole-2-carboxylic acid-{(S)-1-[1-(3-methoxy-benzenesulfonyl)-3-oxo-azepan-4-ylcarbamoyl]-3-methyl-butyl}-amide], for which the inhibition constant Ki at Schisto B 1 was determined as 50 nM; on Schisto B 2 it was 400 nM.
As to `Cc1c(C(=O)N[C@@H](CC(C)C)C(=O)N[C@H]2CCCN(S(=O)(=O)c3ccc(Cl)cc3)CC2=O)oc2ccccc12` [Example 134, 3-Methyl-benzofuran-2-carboxylic acid-{(S)-1-[1-(4-chloro-benzenesulfonyl)-3-oxo-azepan-4-ylcarbamoyl]-3-methyl-butyl}-amide], the Ki on Schisto B 1 was found to be 78 nM; on Schisto B 2, 360 nM.
In the case of `COc1cccc(S(=O)(=O)N2CCC[C@H](NC(=O)[C@H](CC(C)C)NC(=O)c3cc4ccccc4o3)C(=O)C2)c1` [Example 136, Benzofuran-2-carboxylic acid-{(S)-1-[1-(3-methoxy-benzenesulfonyl)-3-oxo-azepan-4-ylcarbamoyl]-3-methyl-butyl}-amide], the Ki is 41 nM at Schisto B 1, 12 nM on Cruzain and 170 nM on Schisto B 2.
Take `O=C(N[C@@H](Cc1ccccc1)C(=O)NC1CCCN(S(=O)(=O)c2ccccn2)CC1=O)c1cc2ccccc2o1` (stereo partly drawn) [Example 104, Benzofuran-2-carboxylic acid {(S)-1-[3-oxo-1-(pyridine-2-sulfonyl)-azepan-4-ylcarbamoyl]-2-phenyl-ethyl}-amide]: the Ki stood at 76 nM on Schisto B 1, 13 nM at Cruzain, 270 nM at Schisto B 2 and 3.2 nM on Rhodazain.
On to `CC(C)C[C@@H](NC(=O)c1cc2cc(OCCN3CCOCC3)ccc2o1)C(=O)NC1CCCN(C(=O)Cc2cccc(-c3ccccn3)c2)CC1=O` (single isomer, unassigned) [Example 4], for which the Ki on Schisto B 1 amounted to 100 nM; on Schisto B 2, 320 nM.
The matching figures for `CC(C)C[C@H](NC(=O)c1cc2ccccc2n1C)C(=O)N[C@H]1CCCN(S(=O)(=O)c2ccc(F)cc2)CC1=O` [Example 84]: 160 nM and 1100 nM.
Consider `Cc1occc1S(=O)(=O)N1CCC[C@H](NC(=O)[C@H](CC(C)C)NC(=O)c2cc3ccccc3o2)C(=O)C1` [Example 179], for which the Ki at Schisto B 1 stood at 11 nM; at Cruzain, 2.2 nM; on Schisto B 2, 110 nM; at Rhodazain it was 5.1 nM.
Regarding `CC(C)C[C@H](NC(=O)c1cc2ccccc2o1)C(=O)N[C@H]1CCCN(S(=O)(=O)c2cccc(Cl)c2)CC1=O` [Example 88, Benzofuran-2-carboxylic acid-{(S)-1-[1-(3-chloro-benzenesulfonyl)-3-oxo-azepan-4ylcarbamoyl]-3-methyl-butyl}-amide], the Ki is 77 nM at Schisto B 1 and 140 nM at Schisto B 2.
Turning to `COc1ccc(C(=O)N[C@@H](CC(C)C)C(=O)N[C@@H]2CCCN(S(=O)(=O)c3ccc(F)cc3)CC2=O)cc1OC` [Example 110, N—{(S)-1-[1-(4-Fluoro-benzenesulfonyl)-3-oxo-azepan-4-ylcarbamoyl}-3-methyl-butyl}-3,4-dimethoxy-benzamide], the Ki stood at 38 nM at Schisto B 1, 7.4 nM on Cruzain, 96 nM at Falcipain 2 and 280 nM on Schisto B 2.
On to `CC(C)CC(NC(=O)c1cc2ccccc2o1)C(=O)N[C@@H]1CCCN(S(=O)(=O)c2ccc(F)cc2)CC1=O` (some centres unmarked) [Example 109], for which the inhibition constant Ki at Schisto B 1 was 31 nM; on Schisto B 2, 120 nM.
As for `COc1ccc2oc(C(=O)N[C@@H](CC(C)C)C(=O)N[C@H]3CCCN(S(=O)(=O)c4cccs4)CC3=O)cc2c1` [Example 143, 5-Methoxy-benzofuran-2-carboxylic acid-{(S)-3-methyl-1-[3-oxo-1-(thiophene-2-sulfonyl)-azepan-4-ylcarbamoyl]-butyl}-amide], the Ki at Schisto B 1 is 55 nM; on Cruzain, 5.7 nM; on Schisto B 2, 110 nM; at Rhodazain it was 6.5 nM.
For `COc1cc2cc(C(=O)N[C@H](CC3CCCCC3)C(=O)NC3CCCN(S(=O)(=O)c4cccc[n+]4[O-])CC3=O)oc2cc1OC` (stereo partly drawn) [Example 170, 5,6-Dimethoxy-benzofuran-2-carboxylic acid {(S)-2-cyclohexyl-1-[3-oxo-1-(1-oxy-pyridine-2-sulfonyl)-azepan-4-ylcarbamoyl]-ethyl}-amide], the Ki at Schisto B 1 amounted to 49 nM; on Schisto B 2, 82 nM; at Rhodazain it was 4.7 nM.
